Legend:
Assay type in all cases: physicochemical
[1] = accelerated aging test (Suntest CPS) of silica sol-gel deposited layer, 620 W/m^2, 24 h; settings: 0.5 mg/ml solution, xenon arc 620 W/m^2, cut-off 310 nm
Experimental: A silica sol-gel solution is formed by the hydrolysis of a silicon alkoxide (tetraethoxysilane, CAS No. 78-10-4) in the presence of ethanol and hydrochloric acid.
A 0.5 mg/ml aqueous pyrene-1-carboxylic solution is formed with a molar equivalent of sodium hydroxide.
One volume of the pyrene-1-carboxylic solution is mixed with an equivalent volume of the sol-gel solution: the mixture is deposited by “knife coating” on a microscope slide transparent to UV-A radiation.
After drying in ambient air, this slide is subjected to an accelerated aging test in a Suntest CPS chamber from Atlas.
The aging conditions are as follows: irradiance at 620 W/m^2, xenon arc lamp equipped with a “sheet glass” filter which cuts off the UV radiation below 310 nm, exposure time 24 h.
FIG. 1 reports the UV transmission spectra of the silica sol-gel deposited layer in which the pyrene-1-carboxylic is incorporated, before/after exposure.
The “light” stability of the pyrene-1-carboxylic compound is thus confirmed.

[2] = accelerated aging test of colored textile behind sol-gel filter layer (NF EN ISO 105-B2)
Experimental: A sol-gel deposited layer is produced on a glass slide under the same conditions as example 1 above, with a starting 5 mg/ml solution of pyrene-1-carboxylic.
This sample is used as filter affixed to a colored textile.
A glass slide not treated with this deposited layer is also affixed to another sample of the same colored textile for the purposes of reference sample.
The two samples are exposed to an accelerated aging test in a Suntest CPS chamber from Atlas. The aging conditions are as follows and in accordance with the standard NF EN ISO 105-B2: irradiance at 550 W/m^2, xenon arc lamp equipped with a “sheet glass” filter which cuts off the UV radiation below 310 nm, exposure time 72 h.

[3] = comparative accelerated aging test of pyrene derivatives in silica sol-gel layer; settings: 0.5 mg/ml, 620 W/m^2, 24 h, black body 55° C, versus pyrenesulfonic, pyreneboronic, pyreneacetic
Experimental: A silica sol-gel solution as defined in example 1 is prepared.
At the same time, four aqueous solutions respectively comprising pyrenecarboxylic, pyrenesulfonic, pyreneboronic and pyreneacetic, at 0.5 mg/ml, with one molar equivalent of sodium hydroxide, are prepared.
A volume of each aqueous solution thus obtained is mixed with an equivalent volume of the sol-gel solution: each mixture obtained is subsequently deposited by “knife coating” on a microscope slide transparent to UV-A radiation.
After drying in ambient air, these slides are subjected to an accelerated aging test in a Suntest CPS chamber from Atlas.
The aging conditions are as follows: irradiance at 620 W/m^2, xenon arc lamp equipped with a “sheet glass” filter which cuts off the UV radiation below 310 nm, exposure time 24 h. The temperature for regulating the black body is 55° C.
FIG. 3 reports the absorption spectra of the different pyrene derivatives described above as a function of time.

[4] = stability toward solar irradiation (general statement); settings: compared with conventional UV stabilizers / substituted benzotriazoles
[5] = accelerated aging test of polyurethane varnish deposited layer, 550 W/m^2, 72 h; settings: 50 mg per g polyurethane solution
Experimental: A curing agent is added to a solution of polyurethane (70% by weight) in a xylene/toluene mixture.
A molecule of nonfunctionalized pyrene (CAS No. 129000) is added in a proportion of 50 mg of pyrene per gram of polyurethane solution.
The mixture is deposited by “knife coating” on a glass slide transparent to UV-A radiation.
After drying in ambient air, this slide is subjected to an accelerated aging test in a Suntest CPS chamber from Atlas. The aging conditions are as follows: irradiance at 550 W/m^2, xenon arc lamp equipped with a “sheet glass” filter which cuts off the UV radiation below 310 nm, exposure time 72 h.
The pyrene not in accordance with the invention is obviously not stable to light.

O=C(O)c1ccc2ccc3cccc4ccc1c2c34 [pyrene-1-carboxylic, pyrene-1-carboxylic acid]
UV/visible transmission properties of the coating before/after exposure [1]: retained
color change of the sol-gel deposited layer after exposure ([2]; 5 mg/ml solution, xenon arc 550 W/m^2, 72 h): has not changed in color
degradation grade on the scale of the blues of the protected colored textile ([2]; scale of 8 levels, 1 most degraded, 8 least degraded, 550 W/m^2, 72 h, untreated reference grade 1): 4-5
stability over time of absorption peak under UV [3]: best stability over time
stability toward solar irradiation / radiation [4]: equivalent to that of substituted benzotriazoles

c1cc2ccc3cccc4ccc(c1)c2c34 [pyrene]
UV/vis transmission properties of the coating before/after exposure [5]: very significantly degraded

From patent US20130089724A1, “NOVEL ORGANIC UV ABSORBERS” (COMMISSARIAT A L'ENERGIE ATOMIQUE ET AUX ENERGIES …, priority 2010, published 2013)
